# From US20060084697A1, “Pi3k antagonists as radiosensitizers” (priority 2002, published 2006)
# Experiments:
# HUVEC cells [1] = test: Clonogenic survival analysis of HUVEC; assay type: cell-based, human
# Procedure: The ability of PI3K antagonist to suppress the clonogenic potential of HUVEC cells treated with radiation was assayed by clonogenic survival analysis. The ability of HUVEC cells treated with LY294002 30 minutes prior to irradiation to form colonies was compared to that of HUVEC cells treated with either radiation or LY294002 alone, and also to that of untreated HUVEC cells. […] Briefly, groups of three HUVEC culture plates were treated at each of four radiation dose levels: 2, 4, 6, and 8 Gy, either with or without prior treatment with PI3K antagonists as described in Example 2. After treatment with radiation and/or antagonists, cells were trypsinized, counted by hemocytometer, and subcultured into fresh medium. After 14 days, the cells were fixed with cold methanol and stained with 1% methylene blue. Colonies with greater than 50 cells were counted and the surviving fraction was determined.
# To determine whether broad spectrum RTK inhibition enhances the cytotoxic effects of radiation on vascular endothelium, SU11248 was added 30 minutes prior to irradiation. HUVECs were treated with vehicle control, and either 100 nM SU11248 orvehicle combined with 6 Gy.
# HUVEC cells [2] = test: Apoptotic nuclei in HUVEC, H&E staining; assay type: cell-based, human; conditions: wortmannin 4 nM or LY294002 2 μM, 24 hours
# Procedure: To determine whether PI3K antagonists enhance the activities of intrinsic cell death mechanisms induced by irradiation, apoptosis in HUVEC cells was studied following PI3K inhibition. HUVEC cells were treated with wortmannin (4 nM) or with LY294002 (2 μM) as described in Example 2. Cells were treated 30 minutes later with 3 Gy of ionizing radiation. Cultures were stained 24 hours later with hematoxylin and eosin (H&E) to reveal apoptotic nuclei. Stained cells were then examined by light microscopy. For each treatment group, four high power fields (40× objective) were examined, and both the number of cells with apoptotic nuclei and the total number of cells were determined. From these numbers, the percentage of apoptotic cells for each group was calculated.
# GL261 tumors = test: Tumor volume assessment, growth delay, GL261; assay type: in vivo, C57BL/6 mice
# Procedure: GL261 tumors were generated by subcutaneous injection of 10^6 cells into the right thighs of C57BL/6 mice as described in Example 6. […] An equal number of large and intermediate size tumors were present in each group. GL261 tumor-bearing mice were treated with 24 Gy ionizing radiation administered in 8 fractionated doses over 10 days. LY294002 was administered at 3 mg/kg by intraperitoneal injection 15 minutes prior to irradiation on days 1, 3, 5, and 7 of radiation therapy. Control mice received identical doses and schedules of either LY294002 alone or radiation alone. Twice each week, tumor volumes were measured using skin calipers as previously described (Grugel et al., 1995; […] et al., 1998; Staba et al., 1998). Briefly, tumor volumes were calculated using the formula: a×b×c/2, where a=maximal width dimension, b=maximal length dimension, and c=maximal depth dimension, which was derived from the formula for calculating the volume of an ellipsoid (πd^3/6). Data were calculated as the percent of original (day 0) tumor volume and graphed as fractional tumor volume plus or minus one standard deviation for each treatment group. Growth delay was defined as the number of days required for tumors to reach a volume of 1 cm^3. Untreated control tumors reached 1 cm^3 at 7 days.
# [3] = test system: GL261 tumor blood vessels; test: Tumor vascular window model, vascular length density, GL261; assay type: in vivo, mouse
# Procedure: Penicillin/streptomycin solution (200 μl; available from GIBCO™ Invitrogen Corporation of Carlsbad, Calif., United States of America) was injected into the hind limb of the mouse prior to preparation of the window chamber. The dorsal skin fold window chamber (Leunig et al., 1992) was prepared using a 3-gram plastic frame, which was applied to the skin of a test animal and remained attached for the duration of the study. To prepare a test animal for application of the plastic frame, the dorsal midline was found along the animal's back, and a clip was placed to hold the skin in position. […] Scanned slides were analyzed using IMAGE-PRO® software (Media Cybernetics, Silver Spring, Md., United States of America) as described below. […] Tumor blood vessels were quantified using IMAGE-PRO® software, which quantified the vascular length density of blood vessel within the microscopic field. The mean vascular length density and the standard error of the mean were calculated for each treatment group. The mean and 95% confidence intervals of vascular length density for each treatment group were calculated and variance was analyzed by the General Linear Models and Bonferroni t test. […] The mean vascular length densities of treatment group were determined at 0 hours, which was the time at which the radiation treatments were commenced. […]
# GL261 glioma tumors = test: Power Doppler sonography of tumor blood flow, GL261 hind limb tumors; assay type: in vivo, C57BL/6J mice
# From the text: Power Doppler sonography was used to study the response of tumor blood vessels to ionizing radiation. This method utilizes amplitude to measure blood flow in microvasculature. Tumors were imaged with a 10-5 MHz ENTOS® linear probe (Advanced Technology Laboratories, Inc., Bothell, Wash., United States of America) attached to an HDI® 5000 diagnostic ultrasound system (Advanced Technology Laboratories, Inc.). Power Doppler sonography images were obtained with the power gain set to 82%. Care was taken to minimize motion artifact. A 20-frame cineloop sweep of the entire tumor was obtained with the probe perpendicular to the long axis of the lower extremity along the entire length of the tumor. The images were analyzed using HDI® software (Advanced Technology Laboratories, Inc). This software allows direct evaluation of Power Doppler cineloop raw data. Color area was recorded for the entire tumor. Five mice were included in each treatment group. Values for color area were averaged for each tumor set and treated groups were compared to controls using the unpaired student t-test. GL261 glioma tumors were implanted in the hind limb of C57BL/6J mice as described in […] et al., 1998. […] Power Doppler analysis of tumor blood flow was measured on day 0, day 3, and day 7 after radiation treatment. […]
structure (smiles),measurement,setting,value
"O=c1cc(N2CCOCC2)oc2c(-c3ccccc3)cccc12 [LY294002, 2-(4-Morpholinyl)-8-phenyl-4H-1-benzopyran-4-one]",radiation-induced cytotoxicity compared to radiation alone,"HUVEC cells [1]; HUVEC treated 30 minutes prior to 2, 4, 6, 8 Gy, p<0.05",significantly enhanced
same,"plating efficiency, % of untreated control cells",HUVEC cells [1]; unirradiated HUVEC treated for 30 minutes,70%
same,"apoptotic nuclei, % of cells",HUVEC cells [2]; HUVEC pretreated 30 minutes before 3 Gy,16%
same,apoptotic cells,HUVEC cells [2]; unirradiated HUVEC,2%
same,growth delay: days for tumors to reach 1 cm^3,"GL261 tumors; 3 mg/kg i.p. 15 minutes prior to irradiation on days 1, 3, 5, 7, 24 Gy in 8 fractions",> 15 days
same,growth delay: days for tumors to reach 1 cm^3,"GL261 tumors; 3 mg/kg i.p. on days 1, 3, 5, 7, alone, untreated 7 days",9 days
same,"mean vascular length density at 96 hours, % of 0 hour",[3]; 3 mg/Kg intraperitoneally 15 minutes prior to 3 Gy,5%
same,"mean vascular length density at 96 hours, % of 0 hour","[3]; 3 mg/Kg intraperitoneally, no radiation, p=0.41",85%
same,tumor blood flow,GL261 glioma tumors; LY294002 alone,unchanged
same,tumor blood flow,GL261 glioma tumors; LY294002 prior to 3 Gy irradiation,obliterated
